Activity calls are given as the source filed them. No cut-off for these calls is given here.
Tests used:
Homo sapiens = organism: Homo sapiens; assay: Selectivity index, ratio of IC50 for HDAC1 (unknown origin) to HDAC6 (unknown origin)
[1] = target: T1, Protein deacetylase HDAC6 (Homo sapiens, UniProt Q9UBN7)
T1 sequence (Q9UBN7 whole entry): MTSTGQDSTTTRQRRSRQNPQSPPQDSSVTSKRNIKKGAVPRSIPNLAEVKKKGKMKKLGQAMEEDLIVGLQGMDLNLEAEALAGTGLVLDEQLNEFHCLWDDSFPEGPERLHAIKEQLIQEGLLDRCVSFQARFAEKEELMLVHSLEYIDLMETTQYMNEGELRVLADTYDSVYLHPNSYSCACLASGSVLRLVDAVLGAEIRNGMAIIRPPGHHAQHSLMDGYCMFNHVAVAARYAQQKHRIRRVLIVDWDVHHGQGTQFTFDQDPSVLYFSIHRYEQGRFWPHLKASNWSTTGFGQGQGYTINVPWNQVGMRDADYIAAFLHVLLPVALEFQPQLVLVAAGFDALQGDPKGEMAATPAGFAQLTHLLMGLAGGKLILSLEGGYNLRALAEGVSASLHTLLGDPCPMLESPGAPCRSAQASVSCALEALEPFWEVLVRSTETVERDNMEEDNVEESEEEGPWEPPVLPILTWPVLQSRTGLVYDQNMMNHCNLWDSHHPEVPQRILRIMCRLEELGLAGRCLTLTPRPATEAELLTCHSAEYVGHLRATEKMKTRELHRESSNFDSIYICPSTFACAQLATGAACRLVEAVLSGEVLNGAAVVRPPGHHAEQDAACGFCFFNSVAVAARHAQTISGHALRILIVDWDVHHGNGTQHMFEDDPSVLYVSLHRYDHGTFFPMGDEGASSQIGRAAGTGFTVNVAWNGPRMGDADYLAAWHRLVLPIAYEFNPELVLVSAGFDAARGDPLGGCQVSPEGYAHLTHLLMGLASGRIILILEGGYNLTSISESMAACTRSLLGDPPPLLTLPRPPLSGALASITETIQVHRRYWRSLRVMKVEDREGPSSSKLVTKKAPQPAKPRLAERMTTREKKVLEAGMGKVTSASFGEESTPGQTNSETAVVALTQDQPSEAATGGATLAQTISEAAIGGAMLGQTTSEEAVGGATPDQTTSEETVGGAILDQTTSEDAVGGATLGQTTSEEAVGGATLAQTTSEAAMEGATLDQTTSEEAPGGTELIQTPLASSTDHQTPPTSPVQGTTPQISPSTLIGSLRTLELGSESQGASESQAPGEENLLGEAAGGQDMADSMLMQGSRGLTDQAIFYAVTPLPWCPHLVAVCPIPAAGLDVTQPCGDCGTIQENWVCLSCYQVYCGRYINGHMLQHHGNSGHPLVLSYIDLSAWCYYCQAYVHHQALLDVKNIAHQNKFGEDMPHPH
Description: Inhibition of HDAC6 (unknown origin)

Histone deacetylase 1 = Histone deacetylase 1 (Homo sapiens, UniProt Q13547)
Description: Inhibition of HDAC1 (unknown origin)

HEK293 [2] = assay: Selectivity index, ratio of IC50 for human HDAC2 expressed in HEK293/T17 cells (unknown origin) to human HDAC6 expressed in HEK293/T17 cells; assay type: cell-based
[3] = target: T2, Protein deacetylase HDAC6 (Homo sapiens) (UniProt Q9UBN7); assay: Inhibition of human HDAC6 in human WM164 cells increase in acetylated alpha-tubulin levels at 0.1 to 10 uM by immunoblot analysis; assay type: cell-based; settings: dose microM 0.1-10
T2 sequence (whole entry): T1 sequence (Q9UBN7 whole entry)

[4] = Half life in SGF by LC-MS/MS analysis; assay type: ADME
HEK293 [5] = assay: Selectivity index, ratio of IC50 for human HDAC9 expressed in HEK293/T17 cells (unknown origin) to human HDAC6 expressed in HEK293/T17 cells; assay type: cell-based
[6] = Half life in PBS by LC-MS/MS analysis; assay type: physicochemical
HEK293 [7] = assay: Selectivity index, ratio of IC50 for human HDAC4 expressed in HEK293/T17 cells (unknown origin) to human HDAC6 expressed in HEK293/T17 cells; assay type: cell-based
HEK293 [8] = assay: Selectivity index, ratio of IC50 for human HDAC1 expressed in HEK293/T17 cells (unknown origin) to human HDAC6 expressed in HEK293/T17 cells; assay type: cell-based
SM1 [9] = assay: Cytotoxicity in mouse SM1 cells assessed as reduction in cell viability up to 25 uM; assay type: functional, cell-based; settings: dose microM <=25
[10] = Half life in rat liver microsome at 10 uM by LC-MS/MS analysis; assay type: ADME; settings: liver microsomes
HEK293 [11] = assay: Selectivity index, ratio of IC50 for human HDAC7 expressed in HEK293/T17 cells (unknown origin) to human HDAC6 expressed in HEK293/T17 cells; assay type: cell-based
HEK293 [12] = assay: Selectivity index, ratio of IC50 for human HDAC3 expressed in HEK293/T17 cells (unknown origin) to human HDAC6 expressed in HEK293/T17 cells; assay type: cell-based
[13] = target: Histone deacetylase (Homo sapiens) (UniProt Q13547+O15379+Q9UBN7+Q92769+Q9UQL6+Q8WUI4+Q9BY41+Q96DB2+P56524+Q9UKV0+Q969S8); assay: Inhibition of human HDAC in human WM164 cells increase in acetylated histone H3 levels at 0.1 to 10 uM by immunoblot analysis; assay type: cell-based; settings: dose microM 0.1-10
[14] = Half life in human plasma at 10 uM by LC-MS/MS analysis; assay type: ADME, cell-free
Histone deacetylase 11 = target: T3, Histone deacetylase 11 (Homo sapiens, UniProt Q96DB2); assay: Inhibition of human HDAC11 expressed in HEK293/T17 cells pre-incubated for 10 mins before […] addition and measured after 30 mins by fluorescence-based assay; assay type: cell-based
T3 sequence (Q96DB2 whole entry): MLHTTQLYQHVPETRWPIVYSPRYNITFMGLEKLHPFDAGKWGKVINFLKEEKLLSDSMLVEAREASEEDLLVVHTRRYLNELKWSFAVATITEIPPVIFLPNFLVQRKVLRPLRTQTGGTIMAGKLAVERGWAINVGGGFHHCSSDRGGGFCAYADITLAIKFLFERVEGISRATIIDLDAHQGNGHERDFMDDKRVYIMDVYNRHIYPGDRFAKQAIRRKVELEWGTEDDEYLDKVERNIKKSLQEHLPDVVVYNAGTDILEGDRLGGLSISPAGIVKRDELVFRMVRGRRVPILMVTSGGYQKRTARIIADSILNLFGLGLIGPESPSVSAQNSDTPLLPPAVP

HEK293 [15] = assay: Selectivity index, ratio of IC50 for human HDAC8 expressed in HEK293/T17 cells (unknown origin) to human HDAC6 expressed in HEK293/T17 cells; assay type: cell-based
[16] = Protein binding in human plasma at 10 uM incubated for 1 hr by LC-MS/MS analysis; assay type: ADME, cell-free; settings: read-out: PPB (converted)
HEK293 [17] = assay: Selectivity index, ratio of IC50 for human HDAC6 expressed in HEK293/T17 cells (unknown origin) to human HDAC6 expressed in HEK293/T17 cells; assay type: cell-based
HEK293 [18] = assay: Selectivity index, ratio of IC50 for human HDAC5 expressed in HEK293/T17 cells (unknown origin) to human HDAC6 expressed in HEK293/T17 cells; assay type: cell-based
[19] = target: T2, Protein deacetylase HDAC6 (Homo sapiens); assay: Inhibition of human HDAC6 in human WM164 cells assessed as decrease in STAT3 Y705 phosphorylation at 5 uM pre-incubated before IL6 stimulation for 20 mins by immunoblot analysis; assay type: cell-based
SM1 [20] = assay: Potentiation of antitumor immune response in C57BL/6 mouse harboring mouse SM1 cells assessed as decrease in tumor burden at 25 mg/kg, ip dosed 5 days per week before starting 15 mg/kg, ip anti-PD1 immune checkpoint blockade therapy measured on day 14; assay type: functional, organism-based; settings: time 14.0 day
SM1 [21] = assay: Potentiation of antitumor immune response in C57BL/6 mouse harboring mouse SM1 cells assessed as decrease in tumor burden at 25 mg/kg, ip dosed 5 days per week before starting 15 mg/kg, ip anti-PD1 immune checkpoint blockade therapy measured on day 20; assay type: functional, organism-based; settings: time 20.0 day

Sequence of Histone deacetylase 1 (Q13547 whole entry): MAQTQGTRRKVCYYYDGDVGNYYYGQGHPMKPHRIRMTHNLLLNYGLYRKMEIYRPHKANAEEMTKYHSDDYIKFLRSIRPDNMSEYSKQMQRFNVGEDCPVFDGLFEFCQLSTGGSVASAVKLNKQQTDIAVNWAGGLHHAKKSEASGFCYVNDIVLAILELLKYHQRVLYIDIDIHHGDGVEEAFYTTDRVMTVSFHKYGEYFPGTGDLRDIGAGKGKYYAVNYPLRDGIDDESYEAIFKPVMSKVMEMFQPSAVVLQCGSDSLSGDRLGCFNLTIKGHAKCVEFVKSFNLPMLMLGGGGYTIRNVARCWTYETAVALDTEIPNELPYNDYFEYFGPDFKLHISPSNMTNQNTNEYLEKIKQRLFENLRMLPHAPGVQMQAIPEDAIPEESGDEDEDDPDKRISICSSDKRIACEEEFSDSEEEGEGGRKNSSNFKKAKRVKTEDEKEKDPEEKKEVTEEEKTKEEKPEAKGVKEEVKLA

Q: For `O=C(NO)c1ccc(CN(CCCO)C(=O)Cc2ccccc2)cc1`, which Ratio IC50 (Homo sapiens) is on record?
A: 36

Q: And the IC50 [1]?
A: 0.031 µM

Q: And the IC50 (Histone deacetylase 1)?
A: 1.13 µM

Q: Which Ratio IC50 (HEK293 [2]) does the source give for `O=C(NO)c1ccc(CN(CCCCO)C(=O)Nc2ccccc2)cc1` here?
A: 536

Q: What about the inhibition [3] of the same compound?
A: Dose-dependent effect

Q: What about the half-life [4] of the same compound?
A: > 5 h

Q: What about the Ratio IC50 (HEK293 [5]) of the same compound?
A: 59500

Q: And the half-life [6]?
A: > 24 h

Q: What about the Ratio IC50 (HEK293 [7]) of the same compound?
A: 27900

Q: And the Ratio IC50 (HEK293 [8])?
A: 296

Q: And the Activity (SM1 [9])?
A: inactive

Q: And the half-life at 10 µM [10]?
A: 3.3 h

Q: And the Ratio IC50 (HEK293 [11])?
A: 3870

Q: What about the Ratio IC50 (HEK293 [12]) of the same compound?
A: 1160

Q: And the inhibition [13]?
A: Active

Q: And the half-life at 10 µM [14]?
A: > 5 h

Q: And the IC50 (Histone deacetylase 11)?
A: > 50 µM

Q: What about the Ratio IC50 (HEK293 [15]) of the same compound?
A: 956

Q: What about the fraction unbound at 1 h, 10 µM [16] of the same compound?
A: 0.52

Q: And the Ratio IC50 (HEK293 [17])?
A: 1

Q: What about the Ratio IC50 (HEK293 [18]) of the same compound?
A: 18300

Q: Which results are given for `CCCCN(Cc1ccc(C(=O)NO)cc1)C(=O)Nc1ccc(CN)cc1`?
A: Ratio IC50 (HEK293 [2]): 312; inhibition [3]: Dose-dependent effect; half-life [4]: > 5 h; Ratio IC50 (HEK293 [5]): 19200; half-life [6]: > 24 h; Ratio IC50 (HEK293 [7]): 25700; Ratio IC50 (HEK293 [8]): 89; half-life at 10 µM [10]: 2.88 h; Ratio IC50 (HEK293 [11]): 10000; Ratio IC50 (HEK293 [12]): 492; inhibition [13]: Active; half-life at 10 µM [14]: > 5 h; IC50 (Histone deacetylase 11): > 50 µM; Ratio IC50 (HEK293 [15]): 682; fraction unbound at 1 h, 10 µM [16]: 0.53; Ratio IC50 (HEK293 [17]): 1; Ratio IC50 (HEK293 [18]): 11200

Q: With `C[C@H](NC(=O)[C@H](CC(=O)NC(C)(C)C)NC(=O)c1ccc(C(=O)NO)cc1)C(=O)NCc1ccccc1` as the compound, how does the Ratio IC50 (Homo sapiens) read?
A: 26

Q: And the IC50 [1]?
A: 0.27 µM

Q: And the IC50 (Histone deacetylase 1)?
A: 6.9 µM

Q: With `CCCCN(Cc1ccc(C(=O)NO)cc1)C(=O)Nc1ccccc1` [NEXTURASTAT A] as the compound, how does the inhibition [19] read?
A: Active

Q: And the inhibition [3]?
A: Dose-dependent effect

Q: And the TGI (SM1 [20])?
A: Active

Q: What about the half-life [4] of the same compound?
A: > 5 h

Q: What about the half-life [6] of the same compound?
A: > 24 h

Q: And the half-life at 10 µM [10]?
A: 7.05 h

Q: What about the Activity (SM1 [21]) of the same compound?
A: Active

Q: What about the inhibition [13] of the same compound?
A: Active

Q: And the half-life at 10 µM [14]?
A: > 5 h

Q: What about the fraction unbound at 1 h, 10 µM [16] of the same compound?
A: 0.11

Q: With `O=C(NO)c1cnc(NC2(c3ccccc3)CCC(F)(F)CC2)nc1` as the compound, how does the Ratio IC50 (Homo sapiens) read?
A: 260
